Data as given in patent US9198894B2, “Uses of 15-benzylidene-14-deoxy-11,12-didehydroandrographolide derivatives in the preparation of antineoplastic drugs” (Zhengzhou University, priority 2010, dated 2015).
Marks after values point to notes of the source that are not given here.

Key:
[1] = tested on: Murine hepatoma H22; assay: Anti-tumor and anti-angiogenesis effects on H22 tumor-bearing mice; format: in vivo, mouse; conditions: for IR (%) of tumor growth / Carmine contents / VI (vascular index, mg carmine red per g tumor tissue): H22 mice; for Carmine contents / VI (vascular index, mg carmine red per g tumor tissue): mean ± s; for Inhibition against angiogenesis in H22 tumor (in words) / Inhibition against the growth of mouse hepatoma H22 (in words): ig, tested doses 0.65-1.35 mmol/kg
Text: 1) Animals: Kunming mice of clean grade, half male and half female, body weight 20±2 g, were purchased from the experimental animal center of Henan Province, China. Qualified Certificate number: SCXK (Yu) 2005-0001.
2) Cells: Murine hepatoma H22 cells were presently obtained from Henan Academy of Medical and Pharmaceutical Sciences (Zhengzhou, China).
Cyclophosphamide (Cyc) was produced by Tianjin Jingshi Pharmaceutical Co., Ltd., China (approval number of medicine: H12021006). Gelatin and carmine red were supplied by Sigma Chemical (St. Louis, Mo., U.S.A). All other chemicals and reagents were of the highest commercial grade available. All drugs were prepared with normal saline emulsified with Tween-80 (0.1% v/v) and dispersed in carboxymethylcellulose (0.5% v/v). 10% (W/V) carmine solution was prepared with salt solution containing 5% (W/V) gelatin which should be used immediately after preparation. The rest of medicines and reagents and the methods for preparation were the same with that of EXAMPLE 1.
4) Method: The H22 cells after in vivo passage for 7 d were diluted with physiological saline to adjust to a concentration of 1×10^7/mL, injected to the armpit of right forelimb of mice subcutaneously (0.2 ml/mouse), then mice were divided into 10 groups (n=12; 6 male and 6 female per group) randomly. 24 h later each group of mice was administrated intragastrically (ig; 0.2 ml/10 g) once a day continuously for 7 d with vehicle (tumor control group and control group), Cyc (standard control), or compounds at the tested doses. After the last drug administration and a following fasting of 8 h, each mouse was anesthetized with 1% pentobarbital in normal saline solution (80 mg/kg; ip). Mice of control group were injected with 5% gelatin in normal saline solution (40) via the tail vein (1 ml/mouse); whereas mice of other groups were injected replaced by 10% carmine red and 5% gelatin in normal saline solution (40). Mice were killed, then freezed in a refrigerator at −20 for 2 h to solidify. Tumors were segregated, weighed and homogenized with 3 M NaOH solution (10 ml/g tumor). The homogenate supernatant was prepared by being centrifuged for 20 min at 14000 rpm, and the absorbance at 490 nm was assayed using a PowerWaveX Microplate Scanning Spectrophotometer (Bio-tek Instruments, Inc). The carmine red content was calculated based on the standard curve. The vascular index (VI) expressed as milligram of carmine red per gram of tumor tissue. The inhibition ratio (IR) of tumor growth was calculated using the formula: IR (%)=[(Wc−Wt)/Wc]×100%, where Wc is the average tumor weight of the control group, and Wt is that of the drug treatment group. Data were expressed as mean±SD and statistical analysis was performed by SPSS Statistics 17.0 using a one-way analysis of variance (ANOVA) followed by unpaired t-test. A value of P<0.05 was considered statistically significant.

[2] = tested on: mice; assay: Acute oral toxicity test, maximum limit method; format: in vivo; conditions: single dose 5.00 g/kg intragastric, 14 d observation; for Deaths: 10 animals
Description: (§1) 1) Animals: Be the same with that of EXAMPLE 4.
3) Method: 20 mice weighing 20±2 g, half male and half female, were divided into 2 groups (n=10) randomly. Animals were administrated with compound 2 or compound 3 at a dose of 5.00 g/kg by intragastric administration after 12 h of fasting (drinking freely). Weigh the mice, observe and record the performance of animals once a day continuously for 14 d.

[3] = tested on: S180 murine sarcoma; assay: Growth, invasion and metastasis of S180 sarcoma in tumor-bearing mice; format: in vivo, mouse; conditions: for Average invasion and metastasis grade: S180, grades 0-4; for Mouse Number Grade 0 / Mouse Number Grade 1 / Mouse Number Grade 2 / Mouse Number Grade 3 / Mouse Number Grade 4: S180 invasion; for Mouse Number Grade 0: Grade 0: no invasion; for Mouse Number Grade 1: Grade 1: invasion to right forelimb; for Mouse Number Grade 2: Grade 2: right forelimb and the left side of body; for Mouse Number Grade 3: Grade 3: also the ribs and muscles in chest; for Mouse Number Grade 4: Grade 4: invasion into chest or abdominal cavity; for In vivo antitumor effect on S180 compared with parent compound (in words) / Inhibitory effect on invasion and metastasis of S180 tumor tissues (in words): ig, tested doses
Description: as §1
2) Cells: The S180 murine sarcoma cells were obtained from Henan Academy of Medical and Pharmaceutical Sciences (Zhengzhou, China).
4) Method: Mice were randomly divided into 10 groups (n=12). The S180 cells after in vivo passage for 7 d were diluted with physiological saline to adjust to a concentration of 1×10^7/mL. The inoculation of tumor cells was conducted in two batches, those of tumor control group I and groups treated with compounds 1 or 3 were in batch 1, those of tumor control group II, Cyc group and the compound 2 groups were in batch 2. The mice were injected with S180 cells (0.2 ml/mouse) into the armpit of right forelimb subcutaneously, and 24 h later each group of mice was administrated intragastrically (ig; 0.2 ml/10 g) once a day continuously for 9 d with vehicle (tumor control group), Cyc (standard control), or compounds at the tested doses. On day 10, kill the mice, observe and record the degree of invasion and metastasis of tumor tissues, then the tumor tissues were segregated and weighed. The inhibition ratio (IR) of tumor growth was calculated by the following formula: IR (%)=[(Wc−Wt)/Wc]×100%, where Wc is the average tumor weight of the control group, and Wt is that of the treatment group. Data were expressed as mean±SD and statistical analysis was performed by SPSS Statistics 17.0 using a one-way analysis of variance (ANOVA) followed by unpaired t-test. A value of P<0.05 was considered statistically significant.

[4] = 1.10 mmol/kg (1.10 mmol/g [sic])

SMILES: C=C1CCC2C(C)(CO)C(O)CCC2(C)C1C=CC1=CC(=Cc2ccc(Cl)cc2)OC1=O (centres unmarked) [Compound 2, 15-p-chlorobenzylidene-14-deoxy-11,12-didehydro-andrographolide]
- IR (%) of tumor growth ([1]; 0.65 mmol/kg ig once a day 7 d): 15.69%
- Carmine contents ([1]; 0.65 mmol/kg ig once a day 7 d): 4.63 ± 2.93
- VI (vascular index, mg carmine red per g tumor tissue) ([1]; 0.65 mmol/kg ig once a day 7 d): 4.42 ± 1.58 mg/g
- IR (%) of tumor growth ([1]; 1.00 mmol/kg ig once a day 7 d): 49.63**^ΔΔ %
- Carmine contents ([1]; 1.00 mmol/kg ig once a day 7 d): 2.59 ± 1.68*^Δ
- VI (vascular index, mg carmine red per g tumor tissue) ([1]; 1.00 mmol/kg ig once a day 7 d): 3.89 ± 0.89 mg/g
- IR (%) of tumor growth ([1]; 1.35 mmol/kg ig once a day 7 d): 50.37**^ΔΔ %
- Carmine contents ([1]; 1.35 mmol/kg ig once a day 7 d): 1.90 ± 1.39**^ΔΔ
- VI (vascular index, mg carmine red per g tumor tissue) ([1]; 1.35 mmol/kg ig once a day 7 d): 3.14 ± 1.69*^Δ mg/g
- Inhibition against angiogenesis in H22 tumor (in words) [1]: significant inhibition
- Inhibition against the growth of mouse hepatoma H22 (in words) [1]: significant inhibition
- Mortality(%) [2]: 0%
- Deaths [2]: 0
- IR (%) of S180 sarcoma growth ([3]; 0.60 mmol/kg ig once a day 9 d): 30.12 ± 8.00 %
- IR (%) of S180 sarcoma growth ([3]; 0.85 mmol/kg ig once a day 9 d): 53.38 ± 6.83**^ΔΔ %
- IR (%) of S180 sarcoma growth ([3]; 1.10 mmol/kg ig once a day 9 d): 45.16 ± 5.58**^ΔΔ %
- Average invasion and metastasis grade ([3]; 0.60 mmol/kg): 2.00
- Average invasion and metastasis grade ([3]; 0.85 mmol/kg): 0.00
- Average invasion and metastasis grade [3, 4]: 0.00
- Mouse Number Grade 0 ([3]; 0.60 mmol/kg): 0
- Mouse Number Grade 0 ([3]; 0.85 mmol/kg): 12
- Mouse Number Grade 0 [3, 4]: 12
- Mouse Number Grade 1 ([3]; 0.60 mmol/kg): 0
- Mouse Number Grade 1 ([3]; 0.85 mmol/kg): 0
- Mouse Number Grade 1 [3, 4]: 0
- Mouse Number Grade 2 ([3]; 0.60 mmol/kg): 12
- Mouse Number Grade 2 ([3]; 0.85 mmol/kg): 0
- Mouse Number Grade 2 [3, 4]: 0
- Mouse Number Grade 3 ([3]; 0.60 mmol/kg): 0
- Mouse Number Grade 3 ([3]; 0.85 mmol/kg): 0
- Mouse Number Grade 3 [3, 4]: 0
- Mouse Number Grade 4 ([3]; 0.60 mmol/kg): 0
- Mouse Number Grade 4 ([3]; 0.85 mmol/kg): 0
- Mouse Number Grade 4 [3, 4]: 0
- In vivo antitumor effect on S180 compared with parent compound (in words) [3]: significantly stronger than that of the parent compound
- Inhibitory effect on invasion and metastasis of S180 tumor tissues (in words) [3]: strong inhibitory effect

SMILES: C=C1CCC2C(C)(COC(=O)c3cccnc3)C(OC(=O)c3cccnc3)CCC2(C)C1C=CC1=CC(=Cc2ccc(Cl)cc2)OC1=O (centres unmarked) [Compound 3, 15-p-chlorobenzylidene-14-deoxy-11,12-didehydro-3,19-dinicotinate andrographolide]
- IR (%) of tumor growth ([1]; 0.65 mmol/kg ig once a day 7 d): 37.89* %
- Carmine contents ([1]; 0.65 mmol/kg ig once a day 7 d): 2.26 ± 1.97*^Δ
- VI (vascular index, mg carmine red per g tumor tissue) ([1]; 0.65 mmol/kg ig once a day 7 d): 3.60 ± 1.86*^Δ mg/g
- IR (%) of tumor growth ([1]; 1.00 mmol/kg ig once a day 7 d): 41.26*^ΔΔ %
- Carmine contents ([1]; 1.00 mmol/kg ig once a day 7 d): 1.88 ± 1.26**^ΔΔ
- VI (vascular index, mg carmine red per g tumor tissue) ([1]; 1.00 mmol/kg ig once a day 7 d): 3.30 ± 1.43*^Δ mg/g
- IR (%) of tumor growth ([1]; 1.35 mmol/kg ig once a day 7 d): 49.27**^ΔΔ %
- Carmine contents ([1]; 1.35 mmol/kg ig once a day 7 d): 2.14 ± 1.42*^Δ
- VI (vascular index, mg carmine red per g tumor tissue) ([1]; 1.35 mmol/kg ig once a day 7 d): 3.88 ± 1.40 mg/g
- Inhibition against angiogenesis in H22 tumor (in words) [1]: significant inhibition
- Inhibition against the growth of mouse hepatoma H22 (in words) [1]: significant inhibition
- Mortality(%) [2]: 0%
- Toxic symptoms observed [2]: No apparent toxic symptoms
- Deaths [2]: 0
- IR (%) of S180 sarcoma growth ([3]; 0.60 mmol/kg ig once a day 9 d): 18.89 ± 3.68 %
- IR (%) of S180 sarcoma growth ([3]; 0.85 mmol/kg ig once a day 9 d): 20.21 ± 4.37 %
- IR (%) of S180 sarcoma growth ([3]; 1.10 mmol/kg ig once a day 9 d): 24.44 ± 6.30 %
- IR (%) of S180 sarcoma growth ([3]; 1.35 mmol/kg ig once a day 9 d): 31.21 ± 5.96**^Δ %
- Average invasion and metastasis grade ([3]; 0.60 mmol/kg): 1.08
- Average invasion and metastasis grade ([3]; 0.85 mmol/kg): 1.25
- Average invasion and metastasis grade [3, 4]: 0.42
- Mouse Number Grade 0 ([3]; 0.60 mmol/kg): 4
- Mouse Number Grade 0 ([3]; 0.85 mmol/kg): 5
- Mouse Number Grade 0 [3, 4]: 8
- Mouse Number Grade 1 ([3]; 0.60 mmol/kg): 5
- Mouse Number Grade 1 ([3]; 0.85 mmol/kg): 2
- Mouse Number Grade 1 [3, 4]: 3
- Mouse Number Grade 2 ([3]; 0.60 mmol/kg): 1
- Mouse Number Grade 2 ([3]; 0.85 mmol/kg): 2
- Mouse Number Grade 2 [3, 4]: 1
- Mouse Number Grade 3 ([3]; 0.60 mmol/kg): 2
- Mouse Number Grade 3 ([3]; 0.85 mmol/kg): 3
- Mouse Number Grade 3 [3, 4]: 0
- Mouse Number Grade 4 ([3]; 0.60 mmol/kg): 0
- Mouse Number Grade 4 ([3]; 0.85 mmol/kg): 0
- Mouse Number Grade 4 [3, 4]: 0
- In vivo antitumor effect on S180 compared with parent compound (in words) [3]: significantly stronger than that of the parent compound
- Inhibitory effect on invasion and metastasis of S180 tumor tissues (in words) [3]: strong inhibitory effect
